Data on eight compounds can be found in patent US20050226879A1, “Methods and compositions related to inhibiting nuclear envelope breakdown” (priority 2002, published 2005).

Holding throughout (type): biochemical, Xenopus laevis
Experiment [1] has as its system nuclear envelope breakdown. Nature of the experiment: In vitro nuclear disassembly assay (nuclei assembled in Xenopus egg extract, cyclin B added). Particulars: for function in the nuclear disassembly assay (inhibition of nuclear envelope breakdown): synthetic peptides 44 μM, 15 minutes prior to sperm chromatin, assessed 75 and 95 minutes post cyclin, qualitative. From the text:
To investigate whetherNup153 participates in nuclear envelope breakdown, recombinant fragments of Nup153 were examined to determine if they exert dominant negative effects on this process in vitro. Cell-free extracts derived from Xenopus eggs were used to form synthetic nuclei around sperm chromatin. This system offers the advantage of biochemical manipulation, while being well-established to robustly recapitulate both nuclear assembly as well as nuclear disassembly in response to mitotic signals (Murray, A. W. et al., Nature 339, 280-286 (1989)). Cycloheximide was included to prevent synthesis of cyclin, thereby arresting these extracts in interphase. After nuclei were assembled, a recombinant form of stabilized cyclin B was added to initiate mitotic events. […] Detection of import cargo provided the clearest visualization of whether a nuclear envelope was intact. […] A control GST fusion protein (FIG. 7B, lanes 1 and 5) likewise had no effect (FIG. 7C, panels g and h). […] In addition, nuclear import cargo was still concentrated in nuclei under mitotic conditions, confirming both the presence and integrity of the nuclear envelope (FIG. 7C, panel o). The effect of the Nup153 zinc finger was not due to selective stability of this fragment, as equivalent levels of recombinant protein were detected in each reaction by immunoblot following the last time point (FIG. 7B, lanes 9-11).
Interphase Xenopus egg extracts were prepared using egg lysis buffer (ELB: 250 mM sucrose, 50 mM KCl, 2.5 mM MgCl2, 10 mM Hepes pH 7.4) supplemented with 1 mM dithiothreitol (DTT), 5 μg/ml cytochalasin B, aprotinin and leupeptin (10 μg/ml each), and 50 μg/ml cycloheximide (Powers, et al., In Current Protocols in Cell Biology (New York, John Wiley & Sons), pp. 11.10.11-11.11.24, (2001). Eggswere lysed by centrifugation for 15 min at 10,000 rpm. The cytoplasmic layer was collected as crude extract. For preparation of fiactionated egg extract, the crude extract was further centrifuged for 1.5 hr at 268,000 x g. The clarified supernatant was removed and further centrifuged for 1 hr at 259,000 x g to remove residual membranes. The crude extract was stored in liquid nitrogen; fractionated extract was frozen in liquid nitrogen and then stored at −80° C.
(§1) Demembranated condensed sperm chromatin was isolated from Xenopus testes as described previously (Powers, et al., In Current Protocols in Cell Biology (New York, John Wiley & Sons), pp. 11.10.11-11.11.24, (2001). For the assembly of nuclei, an ATP-generating system was added to 28 μl of crude egg extract. Sperm chromatin was added and nuclei were allowed to assemble by incubation at room temperature. After assembly for 1 hr, import substrate (NLS-HSA-RITC, prepared as in (Powers, et al., In Current Protocols in Cell Biology (New York, John Wiley & Sons), pp. 11.10.11-11.11.24, (2001)) was added to the reaction and incubated for another 30 min to assess the presence of functional pores and membrane integrity. Recombinant cyclin B with a deletion that confers stability was then added to the nuclei to initiate mitotic events (Murray, A. W., et al., Nature 339, 280-286 (1989). The role of cyclin synthesis and degradation in the control of maturation promoting factor activity Nature 339, 280-286, 1989). Samples were taken from the reaction at the indicated time points to monitor by fluorescence microscopy using DHCC (Calbiochem, San Diego, Calif.) to monitor membranes and Hoechst 33258 (Calbiochem) to monitor DNA. To examine the effects of protein fragments and antibodies on nuclear disassembly, the reagent in question was incubated with crude extract for 15 minutes at room temperature prior to the addition of sperm chromatin and energy mix. As noted, for protein fragments either 3 μg (corresponding to final concentrations of 3.3 μM, 1.7 μM, and 1.5 μM for GST, GST-N, and GST-Z respectively) or 4 μg (corresponding to final concentrations of 4.4 μM and 2 μM for GST and GST-Z respectively) was added. […]

Experiment [2] concerns nuclear assembly and NLS-mediated import. Nature of the experiment: Nuclear assembly and NLS import in egg extract (interphase). Particulars: ARF peptide 22 μM present. The method, then: as §1, with “DNA.” for “DNA. To examine the effects of protein fragments and antibodies on nuclear disassembly, the reagent in question was incubated with crude extract for 15 minutes at room temperature prior to the addition of sperm chromatin and energy mix. As noted, for protein fragments either 3 μg (corresponding to final concentrations of 3.3 μM, 1.7 μM, and 1.5 μM for GST, GST-N, and GST-Z respectively) or 4 μg (corresponding to final concentrations of 4.4 μM and 2 μM for GST and GST-Z respectively) was added.”

Experiment [3] has as its system nuclear envelope breakdown. Nature of the experiment: In vitro nuclear disassembly assay (nuclei assembled in Xenopus egg extract, cyclin B added). Particulars: peptide added after nuclear assembly has taken place.

“Also recorded” adds a separate entry of the source.

Consider CGEHVRPSCGGGS, for which, in experiment [1], the “function in the nuclear disassembly assay (inhibition of nuclear envelope breakdown)” value is “did not have activity”.

As for CEQTYRVCGGGS (CEQTLYRVCGGGS), in experiment [1], the “function in the nuclear disassembly assay (inhibition of nuclear envelope breakdown)” value was “not inhibitory”.

As for GNMFANLFKGLFGKKE [ARF peptide], in experiment [1] (ARF peptide 22 μM, 75 minutes after cyclin addition), the nuclei remaining intact is recorded as 90%. Further, the nuclear assembly result in experiment [2] is “proceeded”.

As to “EKKGFLGKFLNAF MNG (EKKGFLGKFLNAFMNG) [ARF 17-2]”, in experiment [1] (ARF peptides 22 μM, 75 minutes after cyclin addition), the “effect on nuclear disassembly” value is “no significant affect”.

As for “(C)ESGELKPEDDVTVGPAQK (CESGELKPEDDVTVGPAQK; N-terminal cysteine) [immunogenic peptide]”, the “protective effect of anti-β-COP antibodies on inclusion of the peptide” value in experiment [1] (anti-β-COP 5 μg incubated with β-COP peptide 5 μg for 15 min before addition) is reported as “blocked”.

With CTHPFTHECGGGS [ZNFPHD1], in experiment [1] (synthetic form as well as displayed form), the “inhibition of nuclear envelope breakdown” value is given as “capable of inhibiting nuclear envelope breakdown”. Further, in experiment [1], the “function in the nuclear disassembly assay (inhibition of nuclear envelope breakdown)” value is reported as “inhibitory”. Moreover, in experiment [3], the “function in the nuclear disassembly assay” value is “not inhibitory”.

Consider `C[C@H]1CCC/C=C/[C@@H]2C[C@H](O)C[C@H]2[C@H](O)/C=C/C(=O)O1` [Brefeldin A], for which the “effect on nuclear envelope breakdown” value in experiment [1] (Brefeldin A 0.6 μg/ml final, added 15 min prior to assembly) is listed as “interferes with nuclear envelope breakdown; also recorded: very clear interference of nuclear envelope breakdown”.

On to CNNTRSPYCGGGS, for which the “function in the nuclear disassembly assay (inhibition of nuclear envelope breakdown)” value in experiment [1] was “not inhibitory”.
